# Patent publication US11331282B2, “Ophthalmic composition containing clathrated antioxidant substance, and use thereof” (TK Health Research, Co. Ltd., priority 2017, dated 2022)
# What was measured:
# [1] = Solubilization testing by filtration (colour of filtrate, 0.45 μm filter); format: physicochemical
# Protocol: The astaxanthin concentration in the filtrate can be measured by measuring the absorbance of the wavelength 478 nm using an absorption (spectrophoto)meter. […] Astaxanthin was dissolved in DMSO, and the final concentration was adjusted to 6.25, 12.5, 25, 50, and 100 μg/ml with Milli-Q water. After 0 point correction with a solvent, 480 nm absorbance of each astaxanthin solution was measured, and calibration curves were drawn. The concentration of water soluble astaxanthin solution was found from the 480 nm absorbance measurement value of the water soluble astaxanthin solution based thereon. […] Solubilization of lycopene and canthaxanthin was confirmed by filtration with a 0.45 μm filter.
# [2] = tested on: ocular surface goblet cells of a dry eye mouse model; assay: Goblet cell count by PAS stain in BAC dry eye mouse model; format: in vivo; conditions: oral administration for two weeks
# Protocol: To find the effect of astaxanthin eye drops on ocular surface goblet cells of a dry eye mouse model, histological analysis was performed after two weeks of astaxanthin eye drops, and the number of goblet cells was counted by counting the cells stained red by PAS stain.
# A dry eye mouse model was created in the same manner described in Example 1. Subsequently, astaxanthin eye drops were applied and astaxanthin was orally administered (oral intake astaxanthin, also denoted as oAsx) for two weeks. The change in tear volume was measured by Schirmer's test in the same manner as Example 1. The goblet cells were also counted in the same manner as Example 1.
# A dry eye mouse model was created in the same manner as Example 1. Subsequently, water-soluble astaxanthin eye drops and DMSO dissolved astaxanthin eye drops were applied for two weeks, and the change in the tear volume was measured by Schirmer's test in the same manner as Example 1. The goblet cells were also counted in the same manner as Example 1.
# A change in the tear volume in the mouse model is measured by Schirmer's test. The tear volume is determined as a relative tear volume (normal tear volume (filter moving distance): 7.17±1.35 mm) when normal tear volume is 100. Statistical processing: ANOVA, Student's t-test. […]
# dry eye mouse model = assay: Change in tear volume by Schirmer's test in BAC dry eye mouse model; format: in vivo; conditions: oral intake 200 mg/kg, two weeks, Day 28, Example 2
# Protocol: A dry eye mouse model was created by eye drop treatment with benzalkonium chloride (also denoted as BAC).
# After two weeks of continuous BAC treatment of mice, additional BAC treatment and eye drop treatment with water soluble astaxanthin or water soluble control (vehicle, γ-cyclodextrin only) were continued for two weeks. A group of mice applied with only PBS eye drops was used as a […].
# The change in the tear volume in the mouse model was measured by Schirmer's test. The tear volume was determined as a relative tear volume (normal tear volume (filter moving distance): 7.17±1.35 mm) when normal tear volume was 100. Statistical processing: ANOVA, Student's t-test.
# A dry eye mouse model was created in the same manner described in Example 1. […] The change in tear volume was measured by Schirmer's test in the same manner as Example 1. The goblet cells were also counted in the same manner as Example 1.
# A dry eye mouse model was created in the same manner as Example 1. Subsequently, water-soluble astaxanthin eye drops and DMSO dissolved astaxanthin eye drops were applied for two weeks, and the change in the tear volume was measured by Schirmer's test in the same manner as Example 1. The goblet cells were also counted in the same manner as Example 1. […]
# A change in the tear volume in the mouse model is measured by Schirmer's test. […]
solubilization in aqueous solvent (remains in filtrate after filtration) [1],Compound,goblet cell count [2],tear volume (relative to normal tear volume) (dry eye mouse model)
Successful water-solubilization,canthaxanthin,,
,CC1=C(/C=C/C(C)=C/C=C/C(C)=C/C=C/C=C(C)/C=C/C=C(C)/C=C/C2=C(C)C(=O)[C@@H](O)CC2(C)C)C(C)(C)C[C@H](O)C1=O [astaxanthin],recovery in the goblet cell count was not observed,increased only slightly
